Data published in US9464291B2, “Methods and compositions for the treatment of cancer” (University of South Alabama, priority 2012, dated 2016).
Entries after “also recorded” stand apart in the source; their conditions may differ.

Tests used:
[1] = tested on: c-jun (Ser 63, Ser 73, Thr 91, Thr 93); assay: c-jun protein phosphorylation, Western blot, A2780-CP70 cells; type: cell-based, human; settings: 72 hr observation
Procedure: Protein levels for c-jun, c-fos, phosphorylated c-jun (Ser 63), phosphorylated c-jun (Ser 73), and phosphorylated c-jun (Thr 91, Thr 93) were tested in cytosolic, nuclear, and whole cell fractions at 0 hr, 6 hr, 24 hr, 48 hr, and 72 hr. Internal controls for cytosolic and nuclear fractions included α-tubulin and histone deacetylase 3.
Phosphorylation of c-jun in A2780-CP70 cells transfected with anti-GLI1 shRNA construct was assessed using Western blot analysis. Protein levels for c-jun, phosphorylated c-jun (Ser 63), phosphorylated c-jun (Ser 73), and phosphorylated c-jun (Thr 91, Thr 93) were examined at 0 hr, 6 hr, 24 hr, 48 hr, and 72 hr.
A2780-CP70 cells were treated with an IC50 dose of cisplatin and an IC50 dose of anti-Gli1 shRNA.

c-jun = c-jun mRNA (semi-quantitative PCR) and protein (Western blot) in A2780-CP70 cells; type: cell-based, human
Procedure: Controls included α-tubulin and histone deacetylase 3. C-jun antibody recognizes non-phosphorylated c-jun protein.
c-jun and c-fos mRNA expression was examined in A2780-CP70 cells transfected with anti-GLI1 shRNA construct at 6 hr, 24 hr, 48 hr, and 72 hr post-transfection using semi-quantative PCR analysis (FIG. 41).
A2780-CP70 cells were transfected with an IC50 dose of anti-Gli1 shRNA (treated) construct or vector (control). Total intracellular c-jun mRNA and c-jun protein was measured at 6 hr, 24 hr, 48 hr, and 72 hr.
C-jun mRNA and protein levels were further examined in cisplatin-resistant A2780-CP70 cells treated with an IC50 dose of anti-Gli1 shRNA. FIG. 78 depicts mRNA levels (panel A) and protein levels (panel B) in cells at 6, 24, 48, and 72 hours post-treatment.

Shh, Ihh = assay: Shh and Ihh protein levels in A2780-CP70 cells; type: cell-based, human; settings: cyclopamine-treated
Procedure: SHH and IHH protein levels were assessed in cyclopamine-treated A2780-CP70 cells by Western blot analysis. Referring to FIG. 28, SHH protein (51 kDa) was detected in cytoplasmic fractions, but not nuclear fractions of treated cells at 0 hr. […] At 48 hr, SHH protein levels were prominent in cytoplasmic and nuclear fractions, and remained prominent through 72 hr. Referring to FIG. 29, IHH protein (45 kDa) was detected in cytoplasmic and nuclear fractions of treated cells at 0 hr. At 6 hr, IHH protein levels were more prominent in nuclear fractions than in cytoplasmic fractions. At 24 hr, IHH protein levels were low in both nuclear and cytoplasmic fractions. However, at 48 hr IHH protein levels increased in nuclear fractions through to 72 hr. IHH was only weakly present in the cytoplasmic fractions between 48-72 hr. […] After 24 hr SHH and IHH protein levels were similar in nuclear and cytoplasmic fractions. SHH and IHH protein levels rebounded by 48 hr and 72 hr.
The effects of an IC50 dose of anti-Gli1 shRNA on cisplatin-sensitive A2780 cells and cisplatin-resistant A2780-CP70 cells were assessed. Cisplatin-sensitive A2780 cells and cisplatin-resisitant A2780-CP70 cells were treated with 2.0 μg/ml shRNA per 200 microliter well anti-Gli1 shRNA. Protein levels of Gli1, Gli2, c-jun, Shh, Ihh, and GAPDH (control) were measured. […]

c-fos = c-fos mRNA (semi-quantitative PCR) and protein in A2780-CP70 cells; type: cell-based, human
MC3T3-E1 cells = assay: Osteoblast differentiation (ALP) and mineralization (Alizarin Red S), MC3T3-E1; type: cell-based, murine; settings: 100 nM ligand in DM
Procedure: The procedure for differentiation of osteoblasts was standardized. MC3T3-E1 cells were cultured in the presence of ascorbic acid and β-glycerophosphate. Mineralization was examined by Alizarin RedS staining (Ueno, A., et al. (2001). Matrix Biol 20, 347-355; Lee, Y. K., et al. (2004). J Biomed Mater Res A 69, 188-195; Duarte, W. R., et al. (2003). S100A4: a novel negative regulator of mineralization and osteoblast differentiation. J Bone Miner Res 18, 493-501). Referring to FIG. 13 and FIG. 14, differentiation was evident by intense red staining in presence of differentiation medium and in differentiation medium containing SHH compared to the control, growth medium. This was also evident in the intensity of absorbance and in the numbers of mineralized nodules formed (counted under the microscope) (FIG. 15).
Induction of osteoblastic and osteoclastic differentiation—In order to test the effect of conditioned medium from the tumor cells on osteoblast differentiation, a double-strength differentiation medium (DM) was formulated for MC3T3 E1 Sc-14 cells. […] Osteoblast differentiation was assessed by alkaline phosphatase (ALP) activity assay in the perspective of total phosphatase. The functional assessment of osteoblast mineralization was quantified by staining with Alizarin Red S and scoring the number of mineralized nodules.

In the case of `CC1=C2C[C@H]3[C@@H](CC=C4C[C@@H](O)CC[C@@]43C)[C@@H]2CC[C@]12O[C@@H]1C[C@H](C)CN[C@H]1[C@H]2C` [cyclopamine], the “c-jun phosphorylation at Ser63” value [1] is reported as “no phosphorylation occurred at Ser63; also recorded: no substantial expression was detected; also recorded: not observed”, the “c-jun phosphorylation at Thr91/93” value [1] is reported as “peak levels at 6 hr” and the “c-jun mRNA increase” value (c-jun; 70 μM cyclopamine, 6 hr vs 0 hr) is reported as 3 fold. For the same molecule, the “c-jun mRNA increase (peak)” value (c-jun; 70 μM cyclopamine, 24 hr vs 0 hr) was 13 fold, the “time of peak c-jun level” value (c-jun; A2780-CP70, IC50 dose of agent) was “about 48 hours” and the “SHH and IHH protein levels” value (Shh, Ihh) was “reduced at 24 hr”. For the same molecule, the “c-fos mRNA peak level” value (c-fos; 70 μM cyclopamine, vs 0 hr) was 27 fold and the c-fos protein level (c-fos; A2780-CP70, cyclopamine-treated) was “increased substantially at 6 hr”.

With “SHH: recombinant Sonic hedgehog ligand (R & D Systems)” the “osteoblast differentiation (ALP activity)” value (MC3T3-E1 cells) was “stimulated differentiation” and the “numbers of mineralized nodules” value (MC3T3-E1 cells; 14 days) was “significant increase (p<0.05)”.
